The results in this text go back to PMC3574224, “Na^+ Regulation in the Malaria Parasite Plasmodiumfalciparum Involves the Cation ATPase PfATP4 and Is a Target of the Spiroindolone Antimalarials” (Cell Host & Microbe, 2013).

Test [1] concerns P. falciparum NITD609-R^Dd2 clone #2 (mutant PfATP4). The experiment in a line: Disruption of [Na^+]i regulation, SBFI-loaded trophozoites, NITD609-R^Dd2 clone #2. It is filed as cell-based. The note with it: Plasmodium falciparum, from fitted curves, read-out: IC50 for disruption of Na^+ regulation by NITD246. As to the method:
(§1) The [Na^+]i of saponin-isolated parasites was measured at 37°C using the Na^+-sensitive dye SBFI (Molecular Probes, Invitrogen) in conjunction with a PerkinElmer LS 50B Fluorescence Spectrometer fitted with a Dual Excitation Fast Filter. Saponin-isolated parasites were loaded with SBFI by suspension (at 1.40–1.80 × 10^8 cells/mL) for 20 min at 37°C in bicarbonate-free RPMI1640 supplemented with 20 mM D-glucose, 0.2 mM hypoxanthine, 25 mM HEPES, and 25 mg/L gentamycin sulfate (pH 7.10), to which SBFI-acetoxymethyl ester (5.5 μM) and Pluronic F-127 (0.01% w/v) were added. The dye-loaded cells were washed twice (12,000 × g, 0.5 min) in bicarbonate-free RPMI then incubated for a further 20 min at 37°C to allow for complete de-esterification of the dye before being resuspended at a final cell concentration of 1.5–2.5 × 10^7 cells/mL in standard saline. The dye-loaded cells were excited at 340 nm and 380 nm with fluorescence recorded at 490 nm. Calibration of the relationship between the 340/380 nm fluorescence ratio and [Na^+]i (see Figures S1A–S1C) was carried out as described previously ([Diarra et al., 2001]; [Harootunian et al., 1989]). Several inhibitors used in this study caused inner filter effects ([Gu and Kenny, 2009]; [Srinivas and Mutharasan, 1987]); in these cases calibration curves were generated with the inhibitors present. […]

A further test deals with P. falciparum Dd2 parent. As to the kind of experiment: Disruption of [Na^+]i regulation, SBFI-loaded trophozoites, Dd2 parent. It is filed as cell-based. The note with it: Plasmodium falciparum, DD2, read-out: IC50 for disruption of Na^+ regulation by NITD246. As to the method:
as §1

Regarding `C[C@H]1Cc2c([nH]c3cc(F)c(F)cc23)[C@@]2(N1)C(=O)Nc1ccc(Cl)cc12` [NITD246], the IC50 in test [1] was determined as 10.4 ± 8.4 nM; in the test with P. falciparum Dd2 parent, 1.6 ± 0.3 nM.

One may read the IC50 as the concentration at which inhibition is half-maximal.
